Test results: patent US12612388B2, “Receptor-interacting protein 1 inhibitors including piperazine heterocyclic amide ureas” (SIRONAX LTD., priority 2020, dated 2026)
pEC50: −log10 of the molar value.

test system: HT-29 cells; assay: Cellular RIP1 inhibitory activity: necroptosis of HT-29 cells induced by TNF-α/SMAC mimetic/zVAD-FMK, CellTiter-Glo viability; type: cell-based; details: Homo sapiens, HT-29, 20 h, read-out: EC50 (Cell activity; Necrosis or Necroptosis Inhibitory Activity)
Description: In Table 2, activity is provided as follows: +++=0.1 nM≤EC50<100 nM; ++=100 nM≤EC50K<1000 nM; +=1000 nM≤EC50K<10000 nM.
Compounds 1-67 (denoted as Compound Nos. 1 through 67 in Table 1) of the disclosure were tested for binding and cellular RIP1 inhibitory activity following the experimental procedures described below.
Cell line: HT-29 (ATCC® HTB-38™)
Culture medium: McCOY's 5A, Gibco, Cat No. 16600-082
DMSO: Sigma, Cat No. 67-68-5, 1 L
Assay plate: Corning #3903
Compound dilution plate: Corning #3357
Inducers: TNFα, GenScript, Cat No. Z01001-50,
SmacM, Cat. No., HY-15989, MedChemExpress (MCE)
Z_VAD FMK, TargetMol, T6013
Cell Titer-Glo® Luminescent Cell Viability Assay Kit: Promega, Cat No. G7573
1. HT-29 cells were checked every day to make sure that they were healthy and growing as expected. They were subjected to sub-culturing when they were approximately 80% confluent.
2. The culture medium, McCOY's 5A medium (Gibco, Cat No. 16600-082) with 10% fetal bovine serum or FBS (Gibco, Cat No. 10099-141C), was pre-warmed in a 37° C. water bath for at least 30 min.
3. When the cells had reached a desired level of confluency of 80% in a T75 flask, the medium was aspirated, and the cells were washed with warm phosphate buffered saline or PBS two times.
4. 2-3 ml fresh warm trypsin (Gibco, Cat No. 25200-056) solution was added to the washed cells. The flask with the cells was transferred to a 37° C. incubator.
5. After 5 minutes, the side of the flask was tapped, and the flask was examined under a microscope for detachment of the cells to the flask. If necessary, the cells were kept in the incubator for an additional 5-10 minutes, with occasional tapping, until lifting was complete.
6. The trypsin reaction was neutralized by transferring 6-9 ml cell culture medium to sterile 15 ml conical tubes, and by centrifuging the cell culture at 300×g for 7 minutes to pellet the cells (supernatant decanted).
7. The cells were resuspended in fresh cell culture medium and the cell counting was performed using a hemocytometer.
8. 100 μl of the resuspended cell culture medium containing ˜5,000 cells were transferred into each well of the sterile 96-well cell culture plate (Corning 3903) and cultured overnight at 37° C. with 5% CO2.
Compound Titration and Treatment
1. All test compounds were dissolved in DMSO (Dimethyl sulfoxide) to create a 20 mM stock.
2. 3 μl of each compound 20 mM stock was mixed with 27 μl DMSO, and the compound solution was further diluted at a titration ratio of 1:3 (20 μl compound solution+40 μl DMSO) till the 10 points end.
3. All culture medium was removed from assay plates filled with HT-29 cell cultures. The cells were then washed with 1 PBS, and resuspended in fresh, FBS-free McCOY's 5A medium containing a cocktail of TNF-α (10 ng/ml), a SMAC mimetic compound (6 μM) and Z-VAD-fluoromethylketone or zVAD-FMK (10 μM) to stimulate the HT-29 cells to increase RIP1 kinase levels and necroptosis.
4. 0.5 μL of the diluted compound solution was added to the corresponding 96-well assay plates.
5. The assay plates were incubated for 20 hours at 37° C. with 5% CO2.
1. The CellTiter-Glo® Luminescent Cell Viability Assay was employed to detect the ATP levels of viable HT-29 cells.
2. The CellTiter-Glo® buffer and the lyophilized substrate were equilibrated to room temperature prior to use.
3. The CellTiter-Glo® substrate was resuspended with CellTiter-Glo® buffer, then mixed by gently vortexing to obtain a homogeneous solution.
4. 20 μl the enzyme/substrate mixture was transferred by multi-channel pipetting into 96-well assay plates.
5. The assay plates were placed on an orbital shaker and the contents were shaken for 3 minutes to induce cell lysis.
6. The assay plates were incubated at room temperature for 10 minutes to stabilize the luminescent signal.
7. The luminescence signals were read and recorded with EnVision.
8. The geometric mean EC50 values were calculated from 10 points response dose with duplicates. […]

Q: `CCNC(=O)c1ccnc(N2CCN(C(=O)N3N=CC[C@H]3c3cc(F)cc(F)c3)CC2)n1` [Compound 35, (S)-2-(4-(5-(3,5-difluorophenyl)-4,5-dihydro-1H-pyrazole-1-carbonyl)piperazin-1-yl)-N-ethylpyrimidine-4-carboxamide] was tested. Which pEC50 did it give?
A: 7.00 to 10.00

Q: `O=C(c1ccnc(N2CCN(C(=O)N3N=CC[C@H]3c3cc(F)cc(F)c3)CC2)n1)N1CCC1` [Compound 36, (S)-azetidin-1-yl(2-(4-(5-(3,5-difluorophenyl)-4,5-dihydro-1H-pyrazole-1-carbonyl)piperazin-1-yl)pyrimidin-4-yl)methanone] was tested. Which pEC50 did it give?
A: 7.00 to 10.00

same assay, conditions: Homo sapiens; HT-29 cells; TNF-α 10 ng/ml, SMAC mimetic 6 μM, zVAD-FMK 10 μM; 20 hours; geometric mean, 10 points, duplicates; read-out: EC50 (Cell activity; Necrosis or Necroptosis Inhibitory Activity)

Q: How did the pEC50 turn out when `COC1CN(C(=O)c2nc(N3CCN(C(=O)N4N=CC[C@H]4c4cc(F)cc(F)c4)CC3)ncc2F)C1` [Compound 21, (S)-(5-(3,5-difluorophenyl)-4,5-dihydro-1H-pyrazol-1-yl)(4-(5-fluoro-4-(3-methoxyazetidine-1-carbonyl)pyrimidin-2-yl)piperazin-1-yl)methanone] was run?
A: 7.00 to 10.00

Q: With `COC1(C)CN(C(=O)c2nc(N3CCN(C(=O)N4N=CC[C@H]4c4cc(F)cc(F)c4)CC3)ncc2F)C1` [Compound 22, (S)-(5-(3,5-difluorophenyl)-4,5-dihydro-1H-pyrazol-1-yl)(4-(5-fluoro-4-(3-methoxy-3-methylazetidine-1-carbonyl)pyrimidin-2-yl)piperazin-1-yl)methanone] as the molecule, how does the pEC50 read?
A: 7.00 to 10.00

Q: With `CCOC1CN(C(=O)c2nc(N3CCN(C(=O)N4N=CC[C@H]4c4cc(F)cc(F)c4)CC3)ncc2F)C1` [Compound 23, (S)-(5-(3,5-difluorophenyl)-4,5-dihydro-1H-pyrazol-1-yl)(4-(4-(3-ethoxyazetidine-1-carbonyl)-5-fluoropyrimidin-2-yl)piperazin-1-yl)methanone] as the molecule, how does the pEC50 read?
A: 7.00 to 10.00

Q: `CC(C)OC1CN(C(=O)c2nc(N3CCN(C(=O)N4N=CC[C@H]4c4cc(F)cc(F)c4)CC3)ncc2F)C1` [Compound 24, (S)-(5-(3,5-difluorophenyl)-4,5-dihydro-1H-pyrazol-1-yl)(4-(5-fluoro-4-(3-isopropoxyazetidine-1-carbonyl)pyrimidin-2-yl)piperazin-1-yl)methanone] was tested. Which pEC50 did it give?
A: 7.00 to 10.00

Q: `N#CC1CN(C(=O)c2nc(N3CCN(C(=O)N4N=CC[C@H]4c4cc(F)cc(F)c4)CC3)ncc2F)C1` [Compound 25, (S)-1-(2-(4-(5-(3,5-difluorophenyl)-4,5-dihydro-1H-pyrazole-1-carbonyl)piperazin-1-yl)-5-fluoropyrimidine-4-carbonyl)azetidine-3-carbonitrile] was tested. Which pEC50 did it give?
A: 7.00 to 10.00

Q: How did the pEC50 turn out when `NC(=O)[C@H]1CCN(C(=O)c2nc(N3CCN(C(=O)N4N=CC[C@H]4c4cc(F)cc(F)c4)CC3)ncc2F)C1` [Compound 26, (S)-1-(2-(4-((S)-5-(3,5-difluorophenyl)-4,5-dihydro-1H-pyrazole-1-carbonyl)piperazin-1-yl)-5-fluoropyrimidine-4-carbonyl)pyrrolidine-3-carboxamide] was run?
A: 7.00 to 10.00

Q: How did the pEC50 turn out when `NC(=O)[C@@H]1CCN(C(=O)c2nc(N3CCN(C(=O)N4N=CC[C@H]4c4cc(F)cc(F)c4)CC3)ncc2F)C1` [Compound 27, (R)-1-(2-(4-((S)-5-(3,5-difluorophenyl)-4,5-dihydro-1H-pyrazole-1-carbonyl)piperazin-1-yl)-5-fluoropyrimidine-4-carbonyl)pyrrolidine-3-carboxamide] was run?
A: 7.00 to 10.00

Q: With `CN(C)CC1CN(C(=O)c2nc(N3CCN(C(=O)N4N=CC[C@H]4c4cc(F)cc(F)c4)CC3)ncc2F)C1` [Compound 28, (S)-(5-(3,5-difluorophenyl)-4,5-dihydro-1H-pyrazol-1-yl)(4-(4-(3-((dimethylamino)methyl)azetidine-1-carbonyl)-5-fluoropyrimidin-2-yl)piperazin-1-yl) methanone] as the molecule, how does the pEC50 read?
A: 7.00 to 10.00

Q: How did the pEC50 turn out when `O=C(c1nc(N2CCN(C(=O)N3N=CC[C@H]3c3cc(F)cc(F)c3)CC2)ncc1F)N1CC2(CCC2)C1` [Compound 29, (S)-(5-(3,5-difluorophenyl)-4,5-dihydro-1H-pyrazol-1-yl)(4-(5-fluoro-4-(2-azaspiro[3.3]heptane-2-carbonyl)pyrimidin-2-yl)piperazin-1-yl)methanone] was run?
A: 7.00 to 10.00

Q: How did the pEC50 turn out when `NC(=O)C1CN(C(=O)c2nc(N3CCN(C(=O)N4N=CC[C@H]4c4cc(F)cc(F)c4)CC3)ncc2F)C1` [Compound 30, (S)-1-(2-(4-(5-(3,5-difluorophenyl)-4,5-dihydro-1H-pyrazole-1-carbonyl)piperazin-1-yl)-5-fluoropyrimidine-4-carbonyl)azetidine-3-carboxamide] was run?
A: 7.00 to 10.00

Q: `CN(C)[C@H]1CCN(C(=O)c2nc(N3CCN(C(=O)N4N=CC[C@H]4c4cc(F)cc(F)c4)CC3)ncc2F)C1` [Compound 31, ((S)-5-(3,5-difluorophenyl)-4,5-dihydro-1H-pyrazol-1-yl)(4-(4-((S)-3-(dimethylamino)pyrrolidine-1-carbonyl)-5-fluoropyrimidin-2-yl)piperazin-1-yl)methanone] was tested. Which pEC50 did it give?
A: 7.00 to 10.00

Q: How did the pEC50 turn out when `CN(C)[C@@H]1CCN(C(=O)c2nc(N3CCN(C(=O)N4N=CC[C@H]4c4cc(F)cc(F)c4)CC3)ncc2F)C1` [Compound 32, ((S)-5-(3,5-difluorophenyl)-4,5-dihydro-1H-pyrazol-1-yl)(4-(4-((R)-3-(dimethylamino)pyrrolidine-1-carbonyl)-5-fluoropyrimidin-2-yl)piperazin-1-yl)methanone] was run?
A: 7.00 to 10.00

Q: `CN(C)C1CN(C(=O)c2nc(N3CCN(C(=O)N4N=CC[C@H]4c4cc(F)cc(F)c4)CC3)ncc2F)C1` [Compound 33, (S)-(5-(3,5-difluorophenyl)-4,5-dihydro-1H-pyrazol-1-yl)(4-(4-(3-(dimethylamino)azetidine-1-carbonyl)-5-fluoropyrimidin-2-yl)piperazin-1-yl)methanone] was tested. Which pEC50 did it give?
A: 7.00 to 10.00

Q: `CN(CC#N)C(=O)c1nc(N2CCN(C(=O)N3N=CC[C@H]3c3cc(F)cc(F)c3)CC2)ncc1F` [Compound 34, (S)—N-(cyanomethyl)-2-(4-(5-(3,5-difluorophenyl)-4,5-dihydro-1H-pyrazole-1-carbonyl)piperazin-1-yl)-5-fluoro-N-methylpyrimidine-4-carboxamide] was tested. Which pEC50 did it give?
A: 7.00 to 10.00

Q: `CC(C)OC1CN(C(=O)c2ccnc(N3CCN(C(=O)N4N=CC[C@H]4c4cc(F)cc(F)c4)CC3)n2)C1` [Compound 37, (S)-(5-(3,5-difluorophenyl)-4,5-dihydro-1H-pyrazol-1-yl)(4-(4-(3-isopropoxyazetidine-1-carbonyl)pyrimidin-2-yl)piperazin-1-yl)methanone] was tested. Which pEC50 did it give?
A: 7.00 to 10.00

Q: With `NC(=O)c1ccnc(N2CCN(C(=O)N3N=CC[C@H]3c3cc(F)cc(F)c3)CC2)n1` [Compound 38, 2-(4-(5-(3,5-difluorophenyl)-4,5-dihydro-1H-pyrazole-1-carbonyl)piperazin-1-yl)pyrimidine-4-carboxamide] as the molecule, how does the pEC50 read?
A: 7.00 to 10.00

Q: `NC(=O)c1cncc(N2CCN(C(=O)N3N=CC[C@H]3c3cc(F)cc(F)c3)CC2)n1` [Compound 39, (S)-6-(4-(5-(3,5-difluorophenyl)-4,5-dihydro-1H-pyrazole-1-carbonyl)piperazin-1-yl)pyrazine-2-carboxamide] was tested. Which pEC50 did it give?
A: 6.00 to 7.00

Q: With `NC(=O)c1cc(N2CCN(C(=O)N3N=CC[C@H]3c3cc(F)cc(F)c3)CC2)ncn1` [Compound 40, (S)-6-(4-(5-(3,5-difluorophenyl)-4,5-dihydro-1H-pyrazole-1-carbonyl)piperazin-1-yl)pyrimidine-4-carboxamide] as the molecule, how does the pEC50 read?
A: 7.00 to 10.00
